According to ChEMBL document CHEMBL3792335, “L-Aspartic and l-glutamic acid ester-based ProTides of anticancer nucleosides: Synthesis and antitumoral evaluation” (Bioorg Med Chem Lett, 2016):

Assays:
Ramos = assay: Cytotoxicity against human Ramos cells assessed as reduction in cell viability after 72 hrs by MTS assay; format: functional, cell-based
[1] = Cytotoxicity against human U87 cells assessed as reduction in cell viability after 72 hrs by MTS assay; format: functional, cell-based, U-87MG ATCC; details: U-87 MG
A549 = assay: Cytotoxicity against human A549 cells assessed as reduction in cell viability after 72 hrs by MTS assay; format: functional, cell-based; details: A549, 72 h
[2] = Cytotoxicity against human PC3 cells assessed as reduction in cell viability after 72 hrs by MTS assay; format: functional, cell-based; details: PC-3, 72 h
Jurkat = assay: Cytotoxicity against human Jurkat cells assessed as reduction in cell viability after 72 hrs by MTS assay; format: functional, cell-based

Structure (SMILES) | EC50 (Ramos) | EC50 [1] | EC50 (A549) | EC50 [2] | EC50 (Jurkat)
CC(C)CCOC(=O)[C@H](CC(=O)OCc1ccccc1)NP(=O)(OC[C@H]1O[C@@H](n2ccc(N)nc2=O)C(F)(F)[C@@H]1O)Oc1ccccc1 (stereo not given in full) | 700 nM | 43.7 µM | > 100 µM | 3.8 µM | 0.209 µM
Nc1ccn([C@@H]2O[C@H](CO)[C@@H](O)C2(F)F)c(=O)n1 [GEMCITABINE] | 0.03 nM | > 100 µM | > 100 µM | 0.065 µM | 0.023 µM
O=c1[nH]c(=O)n([C@H]2C[C@H](O)[C@@H](CO)O2)cc1F [FLOXURIDINE] | 7.51 nM | 18.2 µM | 60.8 µM | 86.9 µM | 0.00333 µM
CC(C)CCOC(=O)C[C@H](NP(=O)(OC[C@H]1O[C@@H](n2cc(F)c(=O)[nH]c2=O)C[C@@H]1O)Oc1ccccc1)C(=O)OCCC(C)C (stereo not given in full) | 724 nM | 10.1 µM | 43.4 µM | 22.7 µM | 1.1 µM
O=c1[nH]c(=O)n([C@H]2C[C@H](O)[C@@H](CO)O2)cc1/C=C/Br [BRIVUDINE] | > 100000 nM | > 100 µM | > 100 µM | > 100 µM | > 100 µM
CC(C)CCOC(=O)C[C@H](NP(=O)(OC[C@H]1O[C@@H](n2cc(/C=C/Br)c(=O)[nH]c2=O)C[C@@H]1O)Oc1ccccc1)C(=O)OCCC(C)C (stereo not given in full) | 6300 nM | 12.8 µM | 9.9 µM | 12.5 µM | 5.2 µM
CC(C)CCOC(=O)C[C@H](NP(=O)(OC[C@H]1O[C@@H](n2ccc(N)nc2=O)C(F)(F)[C@@H]1O)Oc1ccccc1)C(=O)OCc1ccccc1 (stereo not given in full) | 813 nM | > 100 µM | > 100 µM | 3.6 µM | 0.21 µM
CCOC(=O)CC[C@H](NP(=O)(OC[C@H]1O[C@@H](n2ccc(N)nc2=O)C(F)(F)[C@@H]1O)Oc1ccccc1)C(=O)OCC (stereo not given in full) | 365 nM | > 100 µM | > 100 µM | 2.3 µM | 0.129 µM
CC(C)CCOC(=O)C[C@H](NP(=O)(OC[C@H]1O[C@@H](n2ccc(N)nc2=O)C(F)(F)[C@@H]1O)Oc1ccccc1)C(=O)OCCC(C)C (stereo not given in full) | 294 nM | 43.3 µM | > 100 µM | 3.5 µM | 0.294 µM
CC(C)CCOC(=O)CC[C@H](NP(=O)(OC[C@H]1O[C@@H](n2ccc(N)nc2=O)C(F)(F)[C@@H]1O)Oc1ccccc1)C(=O)OCCC(C)C (stereo not given in full) | 1200 nM | > 100 µM | > 100 µM | 10.9 µM | 1.2 µM
CC(C)CCOC(=O)C[C@H](NP(=O)(OC[C@H]1O[C@@H](n2cc(I)c(=O)[nH]c2=O)C[C@@H]1O)Oc1ccccc1)C(=O)OCCC(C)C (stereo not given in full) | 13600 nM | 38 µM | 27 µM | 33.3 µM | 14.7 µM
O=c1[nH]c(=O)n([C@H]2C[C@H](O)[C@@H](CO)O2)cc1I [IDOXURIDINE] | 47900 nM | > 100 µM | > 100 µM | > 100 µM | 79.7 µM
